Like-named read-outs stand apart in the source and are kept apart here.
Key:
hSCN3A = target: T1, hSCN3A (Homo sapiens, UniProt Q9NY46); test: Whole-cell patch-clamp electrophysiology, hSCN3A in HEK cells; type: cell-based
T1 construct: expressed in transfected cells
Description: (§1) Human Embryonic Kidney (HEK) cells were transfected with hSCN3A or hSCN9A constructs using lipofectamine reagent (Invitrogen), using standard techniques. […] Clones were screened for expression using the whole-cell voltage-clamp technique.
(§2) HEK cells stably transfected with hSCN3A or hSCN9A were maintained in DMEM medium supplemented with 10% heat-inactivated fetal bovine serum and 400 μg/ml G418 sulfate in an incubator at 37° C. with a humidified atmosphere of 10% CO2. […] For electrophysiological studies, cells were removed from the culture flask by brief trypsinization and replated at low density onto glass cover slips. Cells were typically used for electrophysiological experiments within 24 to 72 h after plating. […]
(§3) The voltage-dependence of inactivation was determined by applying a series of depolarizing prepulses (8 sec long in 10 mV increments) from a negative holding potential. […] Cells were then voltage clamped at the empirically determined V1/2.
(§4) Compounds were tested for their ability to inhibit hSCN3A or hSCN9A sodium channels by activating the channel with a 20 msec voltage step to 0 mV following an 8 second conditioning prepulse to the empirically determined V1/2 (Table B). Compound effect (% inhibition) was determined by difference in current amplitude before and after application of test compounds. […]

hSCN9A = target: T2, hSCN9A (Homo sapiens, UniProt Q15858); test: Whole-cell patch-clamp electrophysiology, hSCN9A in HEK cells; type: cell-based
T2 construct: expressed in transfected cells
Description: as §1, §2, §3, §4

Nav1.3 = Nav1.3 (Homo sapiens, UniProt Q9NY46); details: read-out: TTX IC-50; cited from earlier work
Nav1.6 = Nav1.6 (Homo sapiens, UniProt Q9UQD0); details: read-out: TTX IC-50; cited from earlier work
Nav1.8 = Nav1.8 (Homo sapiens, UniProt Q9Y5Y9); details: read-out: TTX IC-50; cited from earlier work
Nav1.9 = Nav1.9 (Homo sapiens, UniProt Q9UI33); details: read-out: TTX IC-50; cited from earlier work
Nav1.1 = Nav1.1 (Homo sapiens, UniProt P35498); details: read-out: TTX IC-50; cited from earlier work
Nav1.2 = Nav1.2 (Homo sapiens, UniProt Q99250); details: read-out: TTX IC-50; cited from earlier work

T2 sequence (Q15858 whole entry): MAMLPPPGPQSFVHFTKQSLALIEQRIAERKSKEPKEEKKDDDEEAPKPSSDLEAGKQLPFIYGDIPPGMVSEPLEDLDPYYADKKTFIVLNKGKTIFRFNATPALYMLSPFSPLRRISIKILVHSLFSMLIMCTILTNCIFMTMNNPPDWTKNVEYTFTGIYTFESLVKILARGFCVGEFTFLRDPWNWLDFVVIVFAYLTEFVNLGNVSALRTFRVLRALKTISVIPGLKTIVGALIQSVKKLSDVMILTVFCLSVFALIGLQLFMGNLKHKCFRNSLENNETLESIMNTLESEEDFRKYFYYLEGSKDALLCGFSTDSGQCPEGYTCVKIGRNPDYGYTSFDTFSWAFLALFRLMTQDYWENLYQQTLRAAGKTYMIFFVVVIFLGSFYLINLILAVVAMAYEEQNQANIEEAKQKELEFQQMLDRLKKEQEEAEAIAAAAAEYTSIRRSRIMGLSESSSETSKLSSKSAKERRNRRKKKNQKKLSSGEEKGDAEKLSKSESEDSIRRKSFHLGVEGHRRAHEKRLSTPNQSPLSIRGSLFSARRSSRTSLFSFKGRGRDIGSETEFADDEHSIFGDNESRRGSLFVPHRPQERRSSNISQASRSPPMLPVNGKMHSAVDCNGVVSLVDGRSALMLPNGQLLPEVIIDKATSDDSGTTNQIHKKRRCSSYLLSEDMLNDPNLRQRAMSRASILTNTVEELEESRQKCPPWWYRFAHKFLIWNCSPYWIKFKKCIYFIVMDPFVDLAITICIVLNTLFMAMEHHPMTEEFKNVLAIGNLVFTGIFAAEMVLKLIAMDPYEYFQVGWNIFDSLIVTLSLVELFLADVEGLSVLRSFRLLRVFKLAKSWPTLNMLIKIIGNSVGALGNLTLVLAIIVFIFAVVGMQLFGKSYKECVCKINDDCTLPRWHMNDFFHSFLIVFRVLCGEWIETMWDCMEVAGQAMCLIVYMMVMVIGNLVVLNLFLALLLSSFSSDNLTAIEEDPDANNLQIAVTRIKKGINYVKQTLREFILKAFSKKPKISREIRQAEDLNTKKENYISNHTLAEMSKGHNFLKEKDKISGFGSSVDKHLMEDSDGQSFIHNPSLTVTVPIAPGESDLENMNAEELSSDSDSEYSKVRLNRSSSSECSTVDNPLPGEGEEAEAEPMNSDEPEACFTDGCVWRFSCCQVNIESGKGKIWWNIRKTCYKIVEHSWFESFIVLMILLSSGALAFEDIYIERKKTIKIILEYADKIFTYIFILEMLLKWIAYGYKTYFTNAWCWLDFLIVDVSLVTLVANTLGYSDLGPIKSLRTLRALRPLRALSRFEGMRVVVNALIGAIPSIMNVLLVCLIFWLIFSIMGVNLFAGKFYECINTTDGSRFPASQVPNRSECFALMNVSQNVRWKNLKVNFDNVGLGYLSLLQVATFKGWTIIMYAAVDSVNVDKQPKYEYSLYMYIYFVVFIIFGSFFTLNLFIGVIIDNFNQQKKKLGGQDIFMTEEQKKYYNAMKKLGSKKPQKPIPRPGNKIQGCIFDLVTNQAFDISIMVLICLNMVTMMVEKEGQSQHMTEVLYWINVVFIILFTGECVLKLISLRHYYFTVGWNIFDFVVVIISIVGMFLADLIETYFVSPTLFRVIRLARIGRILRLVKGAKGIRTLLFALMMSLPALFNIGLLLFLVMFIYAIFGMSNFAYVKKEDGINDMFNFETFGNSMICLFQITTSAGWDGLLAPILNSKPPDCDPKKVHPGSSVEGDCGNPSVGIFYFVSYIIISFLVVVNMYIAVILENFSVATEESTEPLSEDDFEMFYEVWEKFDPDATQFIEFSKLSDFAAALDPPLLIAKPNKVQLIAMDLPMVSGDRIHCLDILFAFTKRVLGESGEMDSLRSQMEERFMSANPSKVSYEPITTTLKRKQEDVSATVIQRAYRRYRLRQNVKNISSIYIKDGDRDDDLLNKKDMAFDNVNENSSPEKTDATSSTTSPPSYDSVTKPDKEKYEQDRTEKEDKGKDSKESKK
T1 sequence (Q9NY46 whole entry): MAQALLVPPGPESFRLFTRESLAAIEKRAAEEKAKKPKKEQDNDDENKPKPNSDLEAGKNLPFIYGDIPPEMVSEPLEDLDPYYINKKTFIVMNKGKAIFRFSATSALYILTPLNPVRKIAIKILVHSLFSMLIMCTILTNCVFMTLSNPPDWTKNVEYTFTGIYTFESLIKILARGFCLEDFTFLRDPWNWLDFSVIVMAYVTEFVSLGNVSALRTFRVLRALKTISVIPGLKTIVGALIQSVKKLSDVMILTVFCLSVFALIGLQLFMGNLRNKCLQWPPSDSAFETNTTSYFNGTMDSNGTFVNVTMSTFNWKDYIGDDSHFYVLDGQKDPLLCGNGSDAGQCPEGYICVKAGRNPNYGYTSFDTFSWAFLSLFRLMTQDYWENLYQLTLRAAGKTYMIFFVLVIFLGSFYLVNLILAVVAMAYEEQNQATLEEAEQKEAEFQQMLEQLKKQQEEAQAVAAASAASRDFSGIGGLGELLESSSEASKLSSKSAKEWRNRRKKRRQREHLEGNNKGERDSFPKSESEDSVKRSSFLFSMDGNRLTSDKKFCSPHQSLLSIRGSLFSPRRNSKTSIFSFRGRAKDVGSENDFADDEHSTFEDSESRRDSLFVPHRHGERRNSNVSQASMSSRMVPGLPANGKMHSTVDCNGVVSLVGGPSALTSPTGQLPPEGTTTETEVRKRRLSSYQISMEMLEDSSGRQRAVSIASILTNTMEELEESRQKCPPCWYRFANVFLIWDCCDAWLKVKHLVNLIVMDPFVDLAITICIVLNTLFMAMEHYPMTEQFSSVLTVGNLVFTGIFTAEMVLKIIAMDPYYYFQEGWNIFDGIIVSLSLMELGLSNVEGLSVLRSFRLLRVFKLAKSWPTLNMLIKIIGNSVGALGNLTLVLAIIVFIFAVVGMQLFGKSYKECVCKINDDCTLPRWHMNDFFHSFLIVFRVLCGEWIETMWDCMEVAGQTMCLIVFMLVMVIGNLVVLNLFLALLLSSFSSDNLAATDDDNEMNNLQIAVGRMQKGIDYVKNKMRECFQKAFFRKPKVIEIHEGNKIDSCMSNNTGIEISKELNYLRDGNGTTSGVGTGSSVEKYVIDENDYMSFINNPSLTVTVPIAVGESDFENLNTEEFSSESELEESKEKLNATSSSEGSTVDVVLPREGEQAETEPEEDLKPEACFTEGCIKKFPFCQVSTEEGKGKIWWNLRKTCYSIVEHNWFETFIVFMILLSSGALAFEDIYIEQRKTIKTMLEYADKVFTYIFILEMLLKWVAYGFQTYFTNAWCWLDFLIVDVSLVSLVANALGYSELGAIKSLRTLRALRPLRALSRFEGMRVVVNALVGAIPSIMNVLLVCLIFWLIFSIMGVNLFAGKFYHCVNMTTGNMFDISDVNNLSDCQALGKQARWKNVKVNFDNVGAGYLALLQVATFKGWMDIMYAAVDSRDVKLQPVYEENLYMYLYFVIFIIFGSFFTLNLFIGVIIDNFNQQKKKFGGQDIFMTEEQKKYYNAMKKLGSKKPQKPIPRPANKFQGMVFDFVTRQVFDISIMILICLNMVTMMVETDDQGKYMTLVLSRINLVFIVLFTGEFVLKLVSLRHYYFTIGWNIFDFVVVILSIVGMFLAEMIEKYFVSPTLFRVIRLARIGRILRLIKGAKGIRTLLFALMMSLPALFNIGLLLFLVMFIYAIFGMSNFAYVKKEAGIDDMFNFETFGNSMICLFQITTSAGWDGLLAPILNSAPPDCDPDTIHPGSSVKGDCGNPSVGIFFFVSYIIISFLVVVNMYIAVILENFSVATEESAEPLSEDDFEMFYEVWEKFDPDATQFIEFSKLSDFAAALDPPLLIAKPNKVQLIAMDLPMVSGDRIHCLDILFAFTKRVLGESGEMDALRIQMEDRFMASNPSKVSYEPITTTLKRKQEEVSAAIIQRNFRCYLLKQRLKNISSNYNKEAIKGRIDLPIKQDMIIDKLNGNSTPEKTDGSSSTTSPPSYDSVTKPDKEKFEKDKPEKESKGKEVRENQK
Chain of Nav1.3 (Q9NY46 whole entry, looked up): as the sequence (Q9NY46 whole entry) above

O=S(=O)(Nc1nccs1)c1ccc(S(=O)(=O)c2ccccc2)cc1 [Compound 65, 4-(phenylsulfonyl)-N-(thiazol-2-yl)benzenesulfonamide] showed an IC50 (hSCN3A; estimated IC-50 from single point % inhibition, HEK cells, 8 sec prepulse to V1/2, step to 0 mV, read-out: hSCN3A EIC-50) of 5000 nM and an IC50 (hSCN9A; estimated IC-50 from single point % inhibition, HEK cells, 8 sec prepulse to V1/2, step to 0 mV, read-out: hSCN9A EIC-50) of 2700 nM.

In the case of O=S(=O)(CCc1ccc(C(F)(F)F)cc1)c1ccc(S(=O)(=O)Nc2nccs2)cc1 [Compound 20, N-(thiazol-2-yl)-4-(4-(trifluoromethyl)phenethylsulfonyl)benzenesulfonamide], the IC50 (hSCN3A) is reported as 160 nM and the IC50 (hSCN9A) is reported as > 10000 nM.

In the case of NC1=N[C@H](O)[C@H]2[C@H]3O[C@]4(O)O[C@@H]([C@@H](O)[C@@]2(N1)[C@@H]4O)[C@]3(O)CO [TTX, tetrodotoxin], the IC50 (Nav1.3) is given as 15 nM, the IC50 (Nav1.6) is given as 6 nM and the IC50 (Nav1.8) is given as 50 µM. The IC50 (Nav1.9) was 1000 nM, the IC50 (Nav1.1) was 10 nM and the IC50 (Nav1.2) was 10 nM.
